Here are results for 5 compounds from patent publication US9353089B2, “Compositions and methods for the treatment of malaria” (Saint Louis University, priority 2013, dated 2016).

Each structure is given as a SMILES string. Read-outs that look alike come from different tables or passages of the source. Non-standard residues stand in square brackets, D forms with d. Residues, ends and D or L forms follow the SMILES beside them. *: point of attachment. Sta = CC(C)C[C@H](N)[C@@H](O)CC(=O)O; Isovaleryl = CC(C)CC(=O)*

Test [1] concerns Plasmodium chabaudi ASS and ASCQ strains. The experiment in a line: In vivo antimalarial efficacy 4-day suppressive test. The following applies: NIH mice, 4.5 mpk orally once daily for four days, Day 4 postinoculation.
Description: Briefly, NIH mice (n=8 per group) were inoculated i.p. with 2×10^7 parasitized (Plasmodium chabaudi ASS or ASCQ) red blood cells. […] Groups (n=6) including a vehicle control and chloroquine (CQ) as a reference drug were included. Parasitemia levels were determined on the day following the last treatment (Day 4).
In test [2] the target is recombinant human BACE1 (Homo sapiens, UniProt P56817). The test can be described thus: β-Secretase (BACE1) enzyme inhibition FRET assay. The format is biochemical. The method, then:
(§1) The enzymatic inhibition activity assays were determined using the fluorescence resonance energy transfer (FRET) assay. The assays were performed in a 384-well plate format. […] CatD and CatE were activated by incubation in assay buffer (0.1 M NaOAc, 0.2 M NaCl, pH 3.5) at room temperature for 30 min. Subsequently, the rhBACE-1 substrate (R&D Systems, catalog# ES004), the Cathepsin D and Cathepsin E substrate (R&D Systems, Catalog # ES001) were added accordingly to final concentration 20 μM to initiate the reaction. After 60 min incubation at room temperature, the time-resolved fluorescence at Ex/Em=360 nm/460 nm was measured on an EnVision multilabel plate reader (Perkin-Elmer). The analytical software, GraphPad Prism 5.0 (GraphPad Software, Inc., USA) was used to generate IC50 values via non-linear regression analysis, which are reported in Tables 8-13 below as BACE1 IC50 values.

Test [3] has as its system recombinant human BACE1. The test can be described thus: β-Secretase (BACE1) enzyme inhibition FRET assay. The format is biochemical. How it is done: as §1
Test [4] concerns the target Plasmepsin (PM-4; Plm IV) (Plasmodium falciparum (isolate 3D7), UniProt Q8IM16). The test can be described thus: Plasmepsin-4 enzyme inhibition assay. The format is biochemical. The note with it: Table 8. The method, then:
Plasmepsin-2 (PM-2; Plm II) and Plasmepsin (PM-4; Plm IV) expression and purification was performed following the published protocols (Istvan E S and Goldberg D E, 2005). The final purified protein was activated by diluting the protein to 0.3 mg/mL in activating buffer (0.1 M citrate pH 4.5, 0.1% Tween-20, 50 mM dithiothreitol) and incubated at room temperature for 40 min, then the activated enzyme was diluted in assay buffer (50 mM sodium acetate pH 4.7, 0.01% Tween-20). The enzymatic inhibition reaction was performed in 384 well plates with a total volume of 20 μl. 10 μl of diluted PM-2 or PM-4 enzyme was added to the 384-well plate except blank wells (blank wells add 10 μL of assay buffer) and 20 nL of serials of diluted 1000× compounds were added to the wells with 520 Echo® Liquid Handling System (Labcyte Inc.). 10 μL PM-2 peptide substrate (AnaSpec, Cat#, 62050) with assay buffer was then added to final concentration of 20 μM to start the reaction. After incubation the reaction at room temperature for 60 min, the fluorescence intensity at Ex/Em=360 nm/535 nm was measured using EnVision multilabel plate reader (Perkin-Elmer). The IC50 values were obtained using Graph Pad Prism 4 and are reported in Tables 8 and 9 below as PM-2 IC50 values.

The target of test [5] is recombinant human Cathepsin D (Homo sapiens (Human), UniProt P07339). The experiment in a line: Cathepsin D enzyme inhibition FRET assay. The format is biochemical. The method, then: (§2) The enzymatic inhibition activity assays were determined using the fluorescence resonance energy transfer (FRET) assay. The assays were performed in a 384-well plate format. […] The concentration of Cathepsin D was 20 ng/μL, and 1 ng/μL of Cathepsin E was used. CatD and CatE were activated by incubation in assay buffer (0.1 M NaOAc, 0.2 M NaCl, pH 3.5) at room temperature for 30 min. Subsequently, the rhBACE-1 substrate (R&D Systems, catalog# ES004), the Cathepsin D and Cathepsin E substrate (R&D Systems, Catalog # ES001) were added accordingly to final concentration 20 μM to initiate the reaction. After 60 min incubation at room temperature, the time-resolved fluorescence at Ex/Em=360 nm/460 nm was measured on an EnVision multilabel plate reader (Perkin-Elmer). The analytical software, GraphPad Prism 5.0 (GraphPad Software, Inc., USA) was used to generate IC50 values via non-linear regression analysis, which are reported in Tables 8-13 below as BACE1 IC50 values.

In test [6] the target is Plasmepsin-2 (PM-2; Plm II) (Plasmodium falciparum (isolate HB3), UniProt P46925). The test can be described thus: Plasmepsin-2 enzyme inhibition assay. The format is biochemical. In outline: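 Enzymes activated in pH 4.5 citrate/DTT buffer, then assayed in 50 mM sodium acetate pH 4.7, 0.01% Tween-20. Compounds added before fluorogenic peptide substrate (final 20 µM); 60 min at room temperature, fluorescence Ex/Em 360/535 nm, IC50 by curve fit.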

Test [7] deals with Plasmodium falciparum 3D7 (CQ-sensitive). The test can be described thus: In vitro antimalarial assay (malaria SYBR Green I-based fluorescence, MSF), 3D7. The format is cell-based. In outline:
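Asynchronous P. falciparum 3D7 cultures (0.5% parasitemia, 2% hematocrit) were exposed to serially diluted compounds, in quadruplicate. Growth was then quantified by SYBR Green I fluorescence after adding lysis buffer containing 0.2 μL/mL dye.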

In test [8] the target is recombinant human Cathepsin E (Homo sapiens (Human), UniProt P14091). The experiment in a line: Cathepsin E enzyme inhibition FRET assay. The format is biochemical. The following applies: Table 8; read-out: CatE IC50. How it is done:
as §2

Test [9] relates to Plasmodium falciparum Dd2 (multi-drug resistant). The experiment in a line: In vitro antimalarial assay (malaria SYBR Green I-based fluorescence, MSF), Dd2. The note with it: DD2, read-out: Dd2 IC50 (μM). The format is cell-based. How it is done: In vitro antimalarial activity was determined by a malaria SYBR Green I-based fluorescence (MSF) method described previously by Smilkstein et al. (2004, which is incorporated herein by reference) with slight modification (Winter, et al., 2006, which is incorporated herein by reference). Stock solutions of each test drug were prepared in DMSO at a concentration of 20 mM. The drug solutions were serially diluted with culture medium and distributed to asynchronous parasite cultures on 96-well plates in quadruplicate in a total volume of 100 μL to achieve 0.5% parasitemia with a 2% hematocrit in a total volume of 100 pt. The plates were then incubated for 72 h at 37° C. After incubation, 100 μL of lysis buffer with 0.2 μL/mL SYBR Green I was added to each well. The plates were incubated at 37° C. for an hour in the dark and then placed in a 96-well fluorescence plate reader (Spectramax Gemini-EM; Molecular Diagnostics) with excitation and emission wavelengths at 497 nm and 520 nm, respectively, for measurement of fluorescence.
Antimalarial potency of compounds was determined by this technique for both Plasmodium falciparum 3D7 (CQ-sensitive) and Dd2 (multi-drug resistant) strains.

The target of a further test is Plasmepsin V (PM-V) (Plasmodium falciparum (isolate 3D7), UniProt Q8I6Z5). The note with it: known inhibitors, background; cited from earlier work.
[10] abbreviates: 3D7, read-out: 3D7 IC50 (μM), Table 13.

recombinant human BACE1 (Homo sapiens, UniProt P56817), sequence (P56817 46-501 limits assumed): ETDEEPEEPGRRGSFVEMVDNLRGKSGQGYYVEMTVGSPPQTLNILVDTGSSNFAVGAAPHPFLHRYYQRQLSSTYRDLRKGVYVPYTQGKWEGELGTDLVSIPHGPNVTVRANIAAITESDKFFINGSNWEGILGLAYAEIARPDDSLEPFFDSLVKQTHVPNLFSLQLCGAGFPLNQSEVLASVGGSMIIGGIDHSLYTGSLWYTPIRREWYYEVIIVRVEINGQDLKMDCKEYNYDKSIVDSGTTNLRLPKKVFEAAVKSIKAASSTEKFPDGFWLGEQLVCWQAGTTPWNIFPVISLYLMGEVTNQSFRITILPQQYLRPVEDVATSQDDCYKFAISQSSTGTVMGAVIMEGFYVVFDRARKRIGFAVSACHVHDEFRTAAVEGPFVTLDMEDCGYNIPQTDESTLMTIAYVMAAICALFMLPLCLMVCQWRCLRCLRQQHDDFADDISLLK
Plasmepsin-2 (PM-2; Plm II), sequence (P46925 125-453 limits assumed): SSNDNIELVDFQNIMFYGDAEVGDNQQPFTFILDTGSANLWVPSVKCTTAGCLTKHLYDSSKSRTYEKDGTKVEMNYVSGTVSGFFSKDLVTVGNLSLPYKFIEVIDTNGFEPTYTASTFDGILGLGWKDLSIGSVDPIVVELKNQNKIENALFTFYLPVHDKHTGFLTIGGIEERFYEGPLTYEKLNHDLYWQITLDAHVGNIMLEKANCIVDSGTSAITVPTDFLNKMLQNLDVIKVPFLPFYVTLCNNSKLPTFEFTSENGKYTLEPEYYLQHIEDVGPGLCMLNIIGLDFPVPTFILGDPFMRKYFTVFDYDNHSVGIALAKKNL
recombinant human Cathepsin D, sequence (P07339 65-412): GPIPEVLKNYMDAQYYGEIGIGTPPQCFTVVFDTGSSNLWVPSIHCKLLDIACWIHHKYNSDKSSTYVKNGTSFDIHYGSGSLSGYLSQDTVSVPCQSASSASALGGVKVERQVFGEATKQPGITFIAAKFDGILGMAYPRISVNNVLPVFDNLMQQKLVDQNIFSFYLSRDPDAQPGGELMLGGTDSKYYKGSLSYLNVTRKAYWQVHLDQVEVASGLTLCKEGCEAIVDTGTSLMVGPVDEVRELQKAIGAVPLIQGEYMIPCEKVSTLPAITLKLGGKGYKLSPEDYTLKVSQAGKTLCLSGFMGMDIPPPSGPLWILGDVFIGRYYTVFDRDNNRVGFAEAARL
Plasmepsin (PM-4; Plm IV), sequence (Q8IM16 122-449 limits assumed): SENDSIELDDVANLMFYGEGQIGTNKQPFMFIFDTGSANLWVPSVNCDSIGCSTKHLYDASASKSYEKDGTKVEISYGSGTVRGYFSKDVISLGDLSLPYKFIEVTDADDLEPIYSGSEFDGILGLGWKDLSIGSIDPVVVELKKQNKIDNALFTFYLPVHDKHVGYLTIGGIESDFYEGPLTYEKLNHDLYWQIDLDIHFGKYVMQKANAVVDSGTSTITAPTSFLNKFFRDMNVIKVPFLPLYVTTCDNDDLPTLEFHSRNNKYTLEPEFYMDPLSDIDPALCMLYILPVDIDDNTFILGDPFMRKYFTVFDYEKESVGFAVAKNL
recombinant human Cathepsin E, sequence (P14091 54-396): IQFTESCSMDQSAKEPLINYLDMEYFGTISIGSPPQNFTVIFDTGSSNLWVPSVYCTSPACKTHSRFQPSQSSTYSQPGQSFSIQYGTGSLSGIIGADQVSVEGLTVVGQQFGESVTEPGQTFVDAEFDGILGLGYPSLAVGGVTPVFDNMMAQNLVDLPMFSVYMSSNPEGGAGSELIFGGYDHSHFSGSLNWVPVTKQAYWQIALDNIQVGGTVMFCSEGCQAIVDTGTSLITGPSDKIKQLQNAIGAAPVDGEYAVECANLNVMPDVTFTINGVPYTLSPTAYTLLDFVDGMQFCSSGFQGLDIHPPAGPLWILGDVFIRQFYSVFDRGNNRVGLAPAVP

For `CCN(CC)CCCC(C)Nc1ccnc2cc(Cl)ccc12` (stereo not drawn) [CQ, chloroquine, reference compound], the “% Inhibition of parasitemia” value in test [1] is given as 99.99%.
A word on the IC50: it is the concentration that inhibits the measured activity by half. `N=C1NC(c2ccccc2)(c2cccc(-c3cccnc3)c2)C(=O)N1C1CCCCC1` (stereo not drawn) [Example 136, 3-cyclohexyl-2-imino-5-phenyl-5-[3-(pyridin-3-yl)-phenyl]imidazolidin-4-one]: the IC50 on recombinant human BACE1 [2] (Table 8, read-out: BACE IC50) is 1680 nM; on recombinant human BACE1 [2] (Table 12, read-out: BACE1 IC50) it was 18100 nM; at recombinant human BACE1 [2] (Table 13, read-out: BACE1 IC50) it was 18100 nM; in [4], 31 nM; in test [5] (Table 8, read-out: CatD IC50), above 10000 nM; in test [6] (Table 8, read-out: PM-II IC50) it was 13 nM. The IC50 in test [6] (Table 12, read-out: PM-2 IC50) was 13 nM; in [6] (Table 13, read-out: PM-2 IC50), 13 nM; in test [7] (3D7, read-out: 3D7 IC50 (μM), Table 12) it was 0.75 µM; in test [7] (setting [10]) it was 0.75 µM; in test [7] (3D7, read-out: Pf 3D7 IC50 (μM), Table 11), 0.75 µM; in [7] (3D7, read-out: Pf 3D7 IC50, Table 8) it was 0.75 µM. Further, the IC50 in test [8] was above 10000 nM. In the test with recombinant human BACE1 [3], the “selectivity for PM-II over BACE” value is listed as above 1000 fold. In the test with recombinant human BACE1 [3] (ratio of BACE1 IC50 to PM-2 IC50), the “BACE1/PM2 Ratio” value amounted to 1392. Moreover, the “selectivity for PM-II over CatD” value in test [5] is above 1000 fold.
Take `COc1ccc(C2(c3ccc(OC)cc3)NC(=N)N(CC3CCCCC3)C2=O)cc1` [Example 221, 3-(cyclohexylmethyl)-2-imino-5,5-bis(4-methoxyphenyl)-imidazolidin-4-one]: the IC50 in test [9] is 0.367 µM; on recombinant human BACE1 [2] (Table 13, read-out: BACE1 IC50), 6010 nM; in test [6] (Table 13, read-out: PM-2 IC50), 2.39 nM; in [7] (setting [10]) it was 0.207 µM; in test [7] (3D7, read-out: Pf3D7 IC50 (μM), Table 10) it was 0.383 µM.
With `Cc1cccc(C)c1OCC(=O)N[C@@H](Cc1ccccc1)[C@@H](O)C[C@H](Cc1ccccc1)NC(=O)[C@H](C(C)C)N1CCCNC1=O` [lopinavir], on Plasmepsin V (PM-V), the IC50 was above 20000 nM.
Consider `CC(C)CC(=O)N[C@H](C(=O)N[C@H](C(=O)N[C@@H](CC(C)C)[C@@H](O)CC(=O)N[C@@H](C)C(=O)N[C@@H](CC(C)C)[C@@H](O)CC(=O)O)C(C)C)C(C)C` [pepstatin A] (Isovaleryl-VV[Sta]A[Sta]-OH), for which, at Plasmepsin V (PM-V), the IC50 was above 20000 nM.
